Patent publication US12054494B2, “Compound with anticancer activity” (KYOWA KIRIN CO., LTD., priority 2018, dated 2024)

Tested on: MYC mRNA expression in SU-DHL-4 cells
Test: Suppressive effect on MYC mRNA expression (qRT-PCR)
Type: cell-based
Details: test compound 100 nmol/L, 6 hours
Experimental: Suppressive Effect on MYC mRNA Expression
SU-DHL-4 cells were cultured at 37° C. using a carbon dioxide gas incubator (95% air, 5% CO2) in RPMI1640 medium in which FBS in an amount to give a final concentration of 10 vol % and PS in an amount to give a final concentration of 1 vol % were added. The cells were passaged twice a week at a volume of 20-40 mL so as to maintain a cell concentration of 1×10^6 cells/mL or less.
The cultured SU-DHL-4 cells were seeded at 6×10^5 cells/well in a transparent 6-well plate (Code No. 140675, Thermo Fisher Scientific). After seeding, the cells were precultured at 37° C. in a carbon dioxide gas incubator for 18 to 25 hours. Next, a 0.1 mmol/L DMSO solution of the test compound was prepared, diluted so that the concentration will be 200 times the final concentration in the RPMI1640 medium containing the above FBS and PS, and 1/200 volume of the diluted solution was added to each well. At this time, the final concentration of DMSO was adjusted to be 0.1 vol %. After adding the test compound, the cells were cultured at 37° C. in a carbon dioxide gas incubator for 6 hours.
Then, the cells were collected by centrifugation and used for extraction of mRNA. mRNA extraction from cells was performed using Maxwell® 16 LEV simplyRNA Purification Kits (Code No. AS1270, Promega). The mRNA recovery protocol was performed according to the manufacturer's recommended protocol attached to the kit.
0.001 mg of the recovered mRNA was converted to cDNA by SuperScript IV VILO Master Mix with ezDNase Enzyme (Code No. 11766050, Thermo Fisher Scientific). The cDNA conversion was performed, according to the manufacturer's recommended protocol attached to the kit, in 0.020 mL of the reaction solution, and GeneAmp® PCR System 9700 (Applied Biosystems) was used. The cDNA-converted sample was diluted 10-fold by adding 0.180 mL of RNase Free Water (Code No. 10977-023, Thermo Fisher Scientific) and used for quantitative real-time polymerase chain reaction (qRT-PCR). For the calibration curve of qRT-PCR, 0.08 mL of RNase Free Water was added to a cDNA sample using DMSO as a test compound for 5-fold dilution. Further, two 5-fold dilutions were prepared stepwise, and these three samples were used as the calibration curve samples.
The following reagents were used for qRT-PCR: TaqMan Gene Expression Assays, Inventoried (Primer probe: Code No. 4331182, Thermo Fisher Scientific, Assay ID: (i) MYC: Hs00153408_m1, (ii) ACTB: Hs01060665_g1, (iii) GAPDH: Hs04420697_g1, (iv) HPRT1: Hs02800695_m1); 2X TaqManR Fast Universal PCR Master Mix, no AmpEraseR UNG (Master Mix: Code No. 4367846, Thermo Fisher Scientific).
Primer probe (0.001 mL), Master Mix (0.010 mL), water (0.004 mL) and the diluted cDNA sample (0.005 mL) were mixed, and qRT-PCR analysis was performed. For qRT-PCR analysis, QuantStudio 7 Flex (Thermo Fisher Scientific) or 7500 Fast Real-Time PCR (Applied Biosystems) was used to measure in Fast mode and analyze. The expression level of the MYC gene was determined by quantifying ACTB, GAPDH, and HPRT1 as housekeeping genes and correcting by the following formula to calculate the suppression rate of (%) of MYC mRNA expression when the test compound was allowed to act at a concentration of 100 nmol/L. Corrected MYC expression=A/B • A: MYC expression level • B: Geometric mean of expression levels of ACTB, GAPDH and HPRT1
Using the corrected values, the suppression rate of MYC expression for the wells to which […] was calculated by the following formula. Suppression rate of MYC expression (%)=100−C/D×100 • C: Corrected MYC expression level in a well containing test compound • D: Corrected MYC expression level in a well to which test compound was not added

Row | Structure (SMILES) | Suppression rate of MYC mRNA expression
1 | CCC(=O)N1c2ccccc2[C@H](Nc2ccc(NC(=O)C#CCNC(=O)C3CCC(N[C@@H]4C[C@H](C)N(C(=O)CC)c5ccccc54)CC3)cc2)C[C@@H]1C (relative stereo) [Compound 8g, (1R,4r)-4-(((2S*,4R*)-2-Methyl-1-propionyl-1,2,3,4-tetrahydroquinolin-4-yl)amino)-N-(4-((4-(((2S,4R)-2-methyl-1-propionyl-1,2,3,4-tetrahydroquinolin-4-yl)amino)phenyl)amino)-4-oxobut-2-yn-1-yl)cyclohexane-1-carboxamide] | 96.6%
2 | CCC(=O)N1c2ccccc2[C@H](N[C@H]2CC[C@H](NC(=O)C#CCNC(=O)[C@H]3CC[C@H](N[C@@H]4C[C@H](C)N(C(=O)CC)c5ccccc54)CC3)CC2)C[C@@H]1C (relative stereo) [Compound 9d, (1R,4R)-4-(((2S*,4R*)-2-Methyl-1-propionyl-1,2,3,4-tetrahydroquinolin-4-yl)amino)-N-(4-(((1R,4R)-4-(((2S,4R)-2-methyl-1-propionyl-1,2,3,4-tetrahydroquinolin-4-yl)amino)cyclohexyl)amino)-4-oxobut-2-yn-1-yl)cyclohexane-1-carboxamide] | 98.0%
3 | CCC(=O)N1c2ccccc2[C@H](NCCCCC(=O)NCc2cn(-c3ccc(N[C@@H]4C[C@H](C)N(C(=O)CC)c5ccccc54)cc3)nn2)C[C@@H]1C (relative stereo) [Compound 12f, 5-(((2S*,4R*)-2-Methyl-1-propionyl-1,2,3,4-tetrahydroquinolin-4-yl)amino)-N-((1-(4-(((2S,4R)-2-methyl-1-propionyl-1,2,3,4-tetrahydroquinolin-4-yl)amino)phenyl)-1H-1,2,3-triazol-4-yl)methyl)pentane amide] | 97.9%
4 | CCC(=O)N1c2ccccc2[C@H](Nc2ccc(C(=O)NCCNS(=O)(=O)c3ccc(N[C@@H]4C[C@H](C)N(C(=O)CC)c5ccccc54)cc3)cc2)C[C@@H]1C [Compound 4d, 4-{[(2S,4R)-2-Methyl-1-propionyl-1,2,3,4-tetrahydroquinolin-4-yl]amino}-N-{2-[(4-{[(2S,4R)-2-methyl-1-propionyl-1,2,3,4-tetrahydroquinolin-4-yl]amino}phenyl)sulfonamide]ethyl}benzamide] | 98.3%
5 | CCC(=O)N1c2ccccc2[C@H](Nc2ccc(Cn3cc(C(=O)Nc4ccc(N[C@@H]5C[C@H](C)N(C(=O)CC)c6ccccc65)cc4)nn3)cc2)C[C@@H]1C [Compound 5j, 1-(4-(((2S,4R)-2-Methyl-1-propionyl-1,2,3,4-tetrahydroquinolin-4-yl)amino)benzyl)-N-(4-(((2S,4R)-2-methyl-1-propionyl-1,2,3,4-tetrahydroquinolin-4-yl)amino)phenyl)-1H-1,2,3-triazolee-4-carboxamide] | 96.8%
6 | CCC(=O)N1c2ccccc2[C@H](Nc2ccc(CCC(=O)NCC3(NC4CCC(N[C@@H]5C[C@H](C)N(C(=O)CC)c6ccccc65)CC4)COC3)cc2)C[C@@H]1C (stereo partly shown) [Compound 7h] | 97.5%
7 | CCC(=O)N1c2ccccc2[C@H](Nc2ccc(NC(=O)CCCC(=O)NC3CCC(N[C@@H]4C[C@H](C)N(C(=O)CC)c5ccccc54)CC3)cc2)C[C@@H]1C (stereo partly drawn) [Compound 7o, N^1-((1R,4r)-4-(((2S,4R)-2-Methyl-1-propionyl-1,2,3,4-tetrahydroquinolin-4-yl)amino)cyclohexyl)-N^5-(4-(((2S,4R)-2-methyl-1-propionyl-1,2,3,4-tetrahydroquinolin-4-yl)amino)phenyl)glutaramide] | 97.4%
8 | CCC(=O)N1c2ccccc2[C@H](Nc2ccc(NC(=O)N3CCN(C(=O)C4CCC(N[C@@H]5C[C@H](C)N(C(=O)CC)c6ccccc65)CC4)CC3)cc2)C[C@@H]1C (stereo partly drawn) [Compound 7p, 4-((1R,4r)-4-(((2S,4R)-2-Methyl-1-propionyl-1,2,3,4-tetrahydroquinolin-4-yl)amino)cyclohexane-1-carbonyl)-N-(4-(((2S,4R)-2-methyl-1-propionyl-1,2,3,4-tetrahydroquinolin-4-yl)amino)phenyl)piperazine-1-carboxamide] | 97.9%
9 | CCC(=O)N1c2ccccc2[C@H](Nc2ccc(-c3nnc(CNC(=O)[C@H]4CC[C@H](N[C@@H]5C[C@H](C)N(C(=O)CC)c6ccccc65)CC4)o3)cc2)C[C@@H]1C [Compound 7q, (1R,4R)-4-(((2S,4R)-2-Methyl-1-propionyl-1,2,3,4-tetrahydroquinolin-4-yl)amino)-N-((5-(4-(((2S,4R)-2-methyl-1-propionyl-1,2,3,4-tetrahydroquinolin-4-yl)amino)phenyl)-1,3,4-oxadiazol-2-yl)methyl)cyclohexane-1-carboxamide] | 97.4%
10 | CCC(=O)N1c2ccccc2[C@H](Nc2ccc(NC(=O)CNC(=O)N[C@H]3CC[C@H](N[C@@H]4C[C@H](C)N(C(=O)CC)c5ccccc54)CC3)cc2)C[C@@H]1C [Compound 8j, 2-(3-((1R,4R)-4-(((2S,4R)-2-Methyl-1-propionyl-1,2,3,4-tetrahydroquinolin-4-yl)amino)cyclohexyl)ureido)-N-(4-(((2S,4R)-2-methyl-1-propionyl-1,2,3,4-tetrahydroquinolin-4-yl)amino)phenyl)acetamide] | 97.2%
11 | CCC(=O)N1c2ccccc2[C@H](Nc2ccc(C(=O)N3CC(C(=O)N[C@H]4CC[C@H](N[C@@H]5C[C@H](C)N(C(=O)CC)c6ccccc65)CC4)C3)cc2)C[C@@H]1C [Compound 8r, 1-(4-(((2S,4R)-2-Methyl-1-propionyl-1,2,3,4-tetrahydroquinolin-4-yl)amino)benzoyl)-N-((1R,4R)-4-(((2S,4R)-2-methyl-1-propionyl-1,2,3,4-tetrahydroquinolin-4-yl)amino)cyclohexyl)azetidine-3-carboxamide] | 96.7%
12 | CCC(=O)N1c2ccccc2[C@H](Nc2ccc(NC(=O)CCCC(=O)NC3CCN(Cc4cc(O)cc(-c5c(C)noc5C)c4)CC3)cc2)C[C@@H]1C [Compound 12c, N^1-(1-(3-(3,5-Dimethylisoxazol-4-yl)-5-hydroxybenzyl)piperidinyl)-N^5-(4-(((2S,4R)-2-methyl-1-propionyl-1,2,3,4-tetrahydroquinolin-4-yl)amino)phenyl)glutaramide] | 97.8%
13 | CCC(=O)N1c2ccccc2[C@H](Nc2ccc(C(=O)NCCCNC(=O)c3ccc(C4=N[C@@H](CC(=O)OC5CCC(O)CC5)c5nnc(C)n5-c5sc(C)c(C)c54)cc3)cc2)C[C@@H]1C (stereo partly drawn) [Compound 13d, 4-Hydroxycyclohexyl 2-((S)-2,3,9-trimethyl-4-(4-((3-(4-(((2S,4R)-2-methyl-1-propionyl-1,2,3,4-tetrahydroquinolin-4-yl)amino)benzamide)propyl)carbamoyl)phenyl)-6H-thieno[3,2-f][1,2,4]triazolo[4,3-a][1,4]diazepin-6-yl)acetate] | 97.2%
